Read-outs that look alike come from different tables or passages of the source.
Target: b-Raf (V600E) (Homo sapiens (Human), UniProt P15056, V600E)
Settings: read-out: b-Raf IC-50, AlphaScreen
[1] = 60 min pre-incubation, 3 hours reaction
[2] = 60 min pre-incubation, reaction 3 hours at room temperature

Sequence of b-Raf (V600E) (P15056 whole entry V600E): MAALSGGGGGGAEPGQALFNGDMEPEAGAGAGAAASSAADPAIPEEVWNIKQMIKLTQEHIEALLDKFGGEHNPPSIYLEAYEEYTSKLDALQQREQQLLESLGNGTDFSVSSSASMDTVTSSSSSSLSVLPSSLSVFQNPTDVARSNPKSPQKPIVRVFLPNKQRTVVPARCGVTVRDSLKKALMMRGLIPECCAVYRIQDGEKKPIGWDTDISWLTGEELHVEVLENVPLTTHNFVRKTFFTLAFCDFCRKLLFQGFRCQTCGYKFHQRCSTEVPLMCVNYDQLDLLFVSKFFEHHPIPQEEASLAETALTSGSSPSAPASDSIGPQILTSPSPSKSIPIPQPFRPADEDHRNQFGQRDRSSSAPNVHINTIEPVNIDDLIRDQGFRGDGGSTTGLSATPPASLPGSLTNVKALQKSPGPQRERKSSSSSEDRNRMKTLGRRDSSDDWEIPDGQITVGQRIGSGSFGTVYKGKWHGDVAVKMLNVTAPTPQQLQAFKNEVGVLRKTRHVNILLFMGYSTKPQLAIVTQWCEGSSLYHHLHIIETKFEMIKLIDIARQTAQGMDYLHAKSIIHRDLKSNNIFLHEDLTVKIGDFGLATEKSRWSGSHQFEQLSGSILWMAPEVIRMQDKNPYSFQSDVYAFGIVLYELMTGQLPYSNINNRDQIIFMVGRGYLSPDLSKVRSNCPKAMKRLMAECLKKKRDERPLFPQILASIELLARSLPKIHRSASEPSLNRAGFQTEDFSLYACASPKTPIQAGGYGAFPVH

IC50 [1]	SMILES	further results
0.2 nM	Cc1ccc(NC(=O)c2cccc(C(F)(F)F)c2)cc1-c1nc(N2CCOCC2)c2sccc2n1 [Example 829, N-(4-methyl-3-(4-morpholinothieno[3,2-d]pyrimidin-2-yl)phenyl)-3-(trifluoromethyl)benzamide]	–
1.9 nM	Cc1ncc(NC(=O)c2cccc(C(F)(F)F)c2)cc1-c1cc(N2CCOCC2)nc(N[C@H](C)CO)n1 [Example 748, (R)—N-(5-(2-((1-hydroxypropan-2-yl)amino)-6-morpholinopyrimidin-4-yl)-6-methylpyridin-3-yl)-3-(trifluoromethyl)benzamide]	–
1.7 nM	Cc1ccc(NC(=O)c2cccc(C(F)(F)F)c2)cc1-c1nc(N2CCOCC2)c2cccnc2n1 [Example 833, N-(4-methyl-3-(4-morpholinopyrido[2,3-d]pyrimidin-2-yl)phenyl)-3-(trifluoromethyl)benzamide]	–
0.9 nM	Cc1ccc(NC(=O)c2cccc(C(F)(F)F)c2)cc1-c1nc(N2CCOCC2)c2ncsc2n1 [Example 839, N-(4-methyl-3-(7-morpholinothiazolo[5,4-d]pyrimidin-5-yl)phenyl)-3-(trifluoromethyl)benzamide]	–
0.7 nM	CCNc1nc(-c2cc(NC(=O)c3cccc(C(F)F)c3)ccc2C)cc(N2CCOCC2)n1 [Example 698, 3-(difluoromethyl)-N-(3-(2-(ethylamino)-6-morpholinopyrimidin-4-yl)-4-methylphenyl)benzamide]	–
1.7 nM	Cc1ccc(NC(=O)c2ccnc(C(C)(C)C#N)c2)cc1-c1cc(N2CCOCC2)n2nccc2n1 [Example 792, 2(2-cyanopropan-2-yl)-N-(4-methyl-3(7-morpholinopyrazolo[1,5-a]pyrimidin-5-yl)phenyl)isonicotinamide]	–
1.4 nM	Cc1ccc(NC(=O)c2ccnc(C(C)C)c2)cc1-c1cc(N2CCOCC2)nc(N(C)C)n1 [Example 757, N-(3-(2-(dimethylamino)-6-morpholinopyrimidin-4-yl)-4-methylphenyl)-2-isopropylisonicotinamide]	–
0.2 nM	Cc1ccc(NC(=O)c2cccc(C(F)F)c2)cc1-c1cc(N2CCOCC2)c2nccn2n1 [Example 847, 3-(difluoromethyl)-N-(4-methyl-3-(8-morpholinoimidazo[1,2-b]pyridazin-6-yl)phenyl)benzamide]	–

The remaining lines, values behind:

SMILES	IC50 [1]	further results
Cc1ccc(NC(=O)c2cccc(C(F)(F)F)c2)cc1-c1cnc(N2CCOCC2)s1 [Example 198, N-(4-methyl-3-(2-morpholinothiazol-5-yl)phenyl)-3-(trifluoromethyl)benzamide]	–	IC50 (Table 2, 3 hours reaction): 0.8 nM
COc1nnc(-c2cc(NC(=O)c3ccnc(C4CC4)c3)cnc2C)cc1N1CCOCC1 [Example 606, 2-cyclopropyl-N-(5-(6-methoxy-5-morpholinopyridazin-3-yl)-6-methylpyridin-3-yl)isonicotinamide]	3.5 nM	–
Cc1ncc(NC(=O)c2ccnc(C(C)(C)F)c2)cc1-c1cnc(OC(C)C)c(N2CCOCC2)c1 [Example 953, 2-(2-fluoropropan-2-yl)-N-(6′-isopropoxy-2-methyl-5′-morpholino-[3,3′-bipyridin]-5-yl)isonicotinamide]	–	IC50 [2]: 3.33 nM
Cn1cc(-c2cc(C(=O)Nc3cccc(C(F)(F)F)c3)cnc2Cl)cc(N2CCOCC2)c1=O [Example 423, 2-chloro-1′-methyl-5′-morpholino-6′-oxo-N-(3-(trifluoromethyl)phenyl)-1′,6′-dihydro-[3,3′-bipyridine]-5-carboxamide]	–	IC50 (Table 2, 3 hours reaction): 6 nM
CCOc1ncc(-c2cc(NC(=O)c3ccnc(C(C)(C)C#N)c3)cnc2C)cc1N1CCOCC1 [Example 239, 2-(2-cyanopropan-2-yl)-N-(6′-ethoxy-2-methyl-5′-morpholino-[3,3′-bipyridin]-5-yl)isonicotinamide]	–	IC50 (Table 2, 3 hours reaction): 5.6 nM
COc1ncc(-c2cc(NC(=O)c3ccnc(C4(C#N)CC4)c3)cnc2Cl)cc1N1CCOCC1 [Example 260, N-(2-chloro-6′-methoxy-5′-morpholino-[3,3′-bipyridin]-5-yl)-2-(1-cyanocyclopropyl)isonicotinamide]	–	IC50 (Table 2, 3 hours reaction): 2.9 nM
Cc1ccc(NC(=O)c2cnnc(C(C)(C)C#N)c2)cc1-c1cc(N2CCOCC2)c(OC2CCOCC2)nn1 [Example 583, 6-(2-cyanopropan-2-yl)-N-(4-methyl-3-(5-morpholino-6-((tetrahydro-2H-pyran-4-yl)oxy)pyridazin-3-yl)phenyl)pyridazine-4-carboxamide]	1.3 nM	–
CCOc1cc(-c2cc(NC(=O)c3ccnc(C(F)F)c3)cnc2C)cc(N2CCOCC2)n1 [Example 1146, 2-(difluoromethyl)-N-(2′-ethoxy-2-methyl-6′-morpholino-[3,4′-bipyridin]-5-yl)isonicotinamide]	–	IC50 [2]: 1.87 nM
CCOc1nnc(-c2cc(NC(=O)c3ccnc(C(C)(C)C#N)c3)ccc2C)cc1N1CCOC[C@H]1C [Example 624, (R)-2-(2-cyanopropan-2-yl)-N-(3-(6-ethoxy-5-(3-methylmorpholino)pyridazin-3-yl)-4-methylphenyl)isonicotinamide]	4.7 nM	–
CCOc1nnc(-c2cc(NC(=O)c3ccnc(S(C)(=O)=O)c3)cnc2C)cc1N1CCOCC1 [Example 615, N-(5-(6-ethoxy-5-morpholinopyridazin-3-yl)-6-methylpyridin-3-yl)-2-(methylsulfonyl)isonicotinamide]	12.3 nM	–
Cc1ncc(NC(=O)c2ccnc(C(C)(C)O)c2)cc1-c1cc(N2CCOCC2)n(C)c(=O)c1 [Example 501, N-(1′,2-dimethyl-6′-morpholino-2′-oxo-1′,2′-dihydro-[3,4′-bipyridin]-5-yl)-2-(2-hydroxypropan-2-yl)isonicotinamide]	32.2 nM	–
Cc1ccc(NC(=O)c2ccnc(C3(C#N)CC3)c2)cc1-c1cc(NCCO)nc(N2CCOCC2)c1F [Example 1011, 2-(1-cyanocyclopropyl)-N-(3-(3-fluoro-6-((2-hydroxyethyl)amino)-2-morpholinopyridin-4-yl)-4-methylphenyl)isonicotinamide]	–	IC50 [2]: 24.5 nM
CCOc1cc(C(=O)Nc2ccc(C)c(-c3cc(N4CCOCC4)c(=O)n(C)c3)c2)ccc1F [Example 344, 3-ethoxy-4-fluoro-N-(4-methyl-3-(1-methyl-5-morpholino-6-oxo-1,6-dihydropyridin-3-yl)phenyl)benzamide]	–	IC50 (Table 2, 3 hours reaction): 3.1 nM
CCn1cc(C(=O)Nc2ccc(C)c(-c3cc(N4CCOCC4)nc(N4CC(O)C4)c3)c2)cc(C(F)(F)F)c1=O [Example 1061, 1-ethyl-N-(3-(2-(3-hydroxyazetidin-1-yl)-6-morpholinopyridin-4-yl)-4-methylphenyl)-6-oxo-5-(trifluoromethyl)-1,6-dihydropyridine-3-carboxamide]	–	IC50 [2]: 3.05 nM
CCOc1ncc(-c2cc(NC(=O)c3ccnc(C(F)F)c3)ccc2C)cc1N1CCOCC1 [Example 237, 2-(difluoromethyl)-N-(3-(6-ethoxy-5-morpholinopyridin-3-yl)-4-methylphenyl)isonicotinamide]	–	IC50 (Table 2, 3 hours reaction): 0.4 nM
Cc1ccc(NC(=O)c2ccnc(C(C)(C)O)c2)cc1-c1cc(NCCO)nc(N2CCOCC2)c1F [Example 1010, N-(3-(3-fluoro-6-((2-hydroxyethyl)amino)-2-morpholinopyridin-4-yl)-4-methylphenyl)-2-(2-hydroxypropan-2-yl)isonicotinamide]	–	IC50 [2]: 28.9 nM
Cc1ccc(C(=O)Nc2cccc(C(F)(F)F)c2)cc1-c1cc(N2CCOCC2)n(C)c(=O)c1 [Example 517, 4-methyl-3-(1-methyl-6-morpholino-2-oxo-1,2-dihydropyridin-4-yl)-N-(3-(trifluoromethyl)phenyl)benzamide]	1.2 nM	–
Cc1ccc(NC(=O)c2cc(C(F)(F)F)ccn2)cc1-c1cc(N2CCOCC2)c(OC(C)C)nn1 [Example 594, N-(3-(6-isopropoxy-5-morpholinopyridazin-3-yl)-4-methylphenyl)-4-(trifluoromethyl)picolinamide]	0.8 nM	–
CCC(F)(F)c1cc(C(=O)Nc2cnc(C)c(-c3cc(N4CCOCC4)c(=O)n(C)n3)c2)ccn1 [Example 679, 2-(1,1-difluoropropyl)-N-(6-methyl-5-(1-methyl-5-morpholino-6-oxo-1,6-dihydropyridazin-3-yl)pyridin-3-yl)isonicotinamide]	8.1 nM	–
Cc1ccc(NC(=O)c2ccnc(C(F)F)c2)cc1-c1cc(NCCO)nc(N2CCOCC2)c1F [Example 1009, 2-(difluoromethyl)-N-(3-(3-fluoro-6-((2-hydroxyethyl)amino)-2-morpholinopyridin-4-yl)-4-methylphenyl)isonicotinamide]	–	IC50 [2]: 14.8 nM
Cc1ccc(NC(=O)c2ccnc(C(C)(C)C#N)c2)cc1-c1cc(N2CCOCC2)ncn1 [Example 2, 2-(2-cyanopropan-2-yl)-N-(4-methyl-3-(6-morpholinopyrimidin-4-yl)phenyl)isonicotinamide]	–	IC50 (Table 2, 3 hours reaction): 4.8 nM
Cc1ncc(NC(=O)c2ccnc(C(C)(F)F)c2)cc1-c1cnc(OC(F)F)c(N2CCOCC2)c1 [Example 980, 2-(1,1-difluoroethyl)-N-(6′-(difluoromethoxy)-2-methyl-5′-morpholino-[3,3′-bipyridin]-5-yl)isonicotinamide]	–	IC50 [2]: 1.99 nM
Cc1ncc(NC(=O)c2ccnc(C(C)(C)C#N)c2)cc1-c1cc(N2CCOCC2)c(=O)n(C)c1 [Example 141, 2-(2-cyanopropan-2-yl)-N-(1′,2-dimethyl-5′-morpholino-6′-oxo-1′,6′-dihydro-[3,3′-bipyridin]-5-yl)isonicotinamide]	–	IC50 (Table 2, 3 hours reaction): 47.5 nM
Cc1ccc(C(=O)Nc2cccc(-c3nnco3)c2)cc1-c1cc(N2CCOCC2)c(=O)n(C)c1 [Example 437, N-(3-(1,3,4-oxadiazol-2-yl)phenyl)-4-methyl-3-(1-methyl-5-morpholino-6-oxo-1,6-dihydropyridin-3-yl)benzamide]	15.4 nM	–
Cc1ncc(NC(=O)c2ccnc(C(C)(C)C)c2)cc1-c1cc(N2CCOCC2)n(C)c(=O)c1 [Example 507, 2-(tert-butyl)-N-(1′,2-dimethyl-6′-morpholino-2′-oxo-1′,2′-dihydro-[3,4′-bipyridin]-5-yl)isonicotinamide]	20.6 nM	–
Cc1ccc(NC(=O)c2ccnc(N3CCC3)c2)cc1-c1cc(N2CCOCC2)c(=O)n(C)c1 [Example 454, 2-(azetidin-1-yl)-N-(4-methyl-3-(1-methyl-5-morpholino-6-oxo-1,6-dihydropyridin-3-yl)phenyl)isonicotinamide]	1.9 nM	–

Reference: patent US9694016B2 (Novartis AG, priority 2013, dated 2017)
